Reference: ChEMBL document CHEMBL5465560, “Selectivity Literature for EUbOPEN Chemogenomic Library” (2024)
Values belong to the molecule of their own block, whether it stands above or below them.

How the values were obtained:
[1] = molecular target: Tyrosine-protein kinase Fyn (Homo sapiens) (UniProt P06241); experiment: Selectivity interaction (Millipore kinase profiler) EUB0000124b FYN; settings: at 10 µM
[2] = molecular target: Tyrosine-protein kinase SYK (Homo sapiens, UniProt P43405); experiment: Selectivity interaction (ActivX KiNativ screen (kinase selectivity in THP-1 cell lysates)) EUB0000639a SYK; format: subcellular; settings: lysate, at 0.01 µM
[3] = molecular target: Receptor-interacting serine/threonine-protein kinase 2 (Homo sapiens, UniProt O43353); experiment: Selectivity interaction (Kinase panel (Invitrogen)) EUB0000639a RIPK2; settings: at 200 nM
[4] = molecular target: Mitogen-activated protein kinase 14 (Homo sapiens, UniProt Q16539)
[5] = molecular target: Serine/threonine-protein kinase Nek6 (Homo sapiens) (UniProt Q9HC98); experiment: Selectivity interaction (Kinase panel (literature)) EUB0001199aCl NEK6; settings: at 1 µM
[6] = molecular target: T1, Serine/threonine-protein kinase D1 (Homo sapiens) (UniProt Q15139); experiment: Selectivity interaction (Upstate Kinase Profiler service (Millipore)) EUB0000056c PRKD1; settings: at 1 µM
T1 sequence (whole entry): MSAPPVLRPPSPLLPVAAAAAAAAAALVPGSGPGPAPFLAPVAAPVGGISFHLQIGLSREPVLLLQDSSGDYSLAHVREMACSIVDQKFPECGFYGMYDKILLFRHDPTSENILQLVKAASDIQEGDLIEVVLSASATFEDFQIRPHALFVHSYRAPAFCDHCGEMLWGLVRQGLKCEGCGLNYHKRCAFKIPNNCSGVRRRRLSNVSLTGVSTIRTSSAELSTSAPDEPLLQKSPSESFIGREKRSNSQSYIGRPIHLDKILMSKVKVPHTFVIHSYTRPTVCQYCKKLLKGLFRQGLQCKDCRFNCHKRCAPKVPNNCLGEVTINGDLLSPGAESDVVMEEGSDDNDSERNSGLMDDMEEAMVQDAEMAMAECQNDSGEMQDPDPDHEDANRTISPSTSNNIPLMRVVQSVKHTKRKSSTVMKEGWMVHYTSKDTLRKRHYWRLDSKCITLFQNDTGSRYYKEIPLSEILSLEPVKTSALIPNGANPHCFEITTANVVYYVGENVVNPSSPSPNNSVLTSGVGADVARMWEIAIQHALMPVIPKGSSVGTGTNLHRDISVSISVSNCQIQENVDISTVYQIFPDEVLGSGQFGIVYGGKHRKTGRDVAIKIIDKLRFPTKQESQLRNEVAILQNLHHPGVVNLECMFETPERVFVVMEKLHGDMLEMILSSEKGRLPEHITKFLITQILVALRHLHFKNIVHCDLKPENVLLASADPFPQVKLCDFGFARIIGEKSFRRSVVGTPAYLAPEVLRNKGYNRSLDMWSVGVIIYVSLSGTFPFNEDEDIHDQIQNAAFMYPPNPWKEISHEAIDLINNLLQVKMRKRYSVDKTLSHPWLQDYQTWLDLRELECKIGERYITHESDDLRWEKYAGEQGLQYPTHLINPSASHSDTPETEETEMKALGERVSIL

[7] = molecular target: T2, MAP/microtubule affinity-regulating kinase 4 (Homo sapiens) (UniProt Q96L34); experiment: Selectivity interaction (Kinase panel (DSF assay)) EUB0001558a MARK4
T2 sequence (whole entry): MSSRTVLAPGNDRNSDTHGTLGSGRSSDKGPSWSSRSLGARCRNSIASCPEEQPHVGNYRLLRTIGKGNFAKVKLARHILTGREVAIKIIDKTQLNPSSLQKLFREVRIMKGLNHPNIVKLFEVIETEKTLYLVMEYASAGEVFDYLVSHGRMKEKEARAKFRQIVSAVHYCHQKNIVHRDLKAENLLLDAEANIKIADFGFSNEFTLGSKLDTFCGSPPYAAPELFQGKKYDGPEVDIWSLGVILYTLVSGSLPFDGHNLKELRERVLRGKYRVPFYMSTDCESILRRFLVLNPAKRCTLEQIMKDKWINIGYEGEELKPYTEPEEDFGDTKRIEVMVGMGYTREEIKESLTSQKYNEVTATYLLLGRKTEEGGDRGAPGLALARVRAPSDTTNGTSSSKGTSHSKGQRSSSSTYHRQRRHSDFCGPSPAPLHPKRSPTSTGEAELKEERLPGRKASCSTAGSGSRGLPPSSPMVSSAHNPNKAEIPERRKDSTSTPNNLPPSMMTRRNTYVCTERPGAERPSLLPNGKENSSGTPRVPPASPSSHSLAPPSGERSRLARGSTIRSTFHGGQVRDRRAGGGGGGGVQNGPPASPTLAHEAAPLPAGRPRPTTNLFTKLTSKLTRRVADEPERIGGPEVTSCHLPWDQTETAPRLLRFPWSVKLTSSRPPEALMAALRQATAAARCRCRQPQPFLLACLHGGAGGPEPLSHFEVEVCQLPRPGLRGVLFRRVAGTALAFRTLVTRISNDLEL

Chain of Serine/threonine-protein kinase Nek6 (Homo sapiens) (Q9HC98 whole entry): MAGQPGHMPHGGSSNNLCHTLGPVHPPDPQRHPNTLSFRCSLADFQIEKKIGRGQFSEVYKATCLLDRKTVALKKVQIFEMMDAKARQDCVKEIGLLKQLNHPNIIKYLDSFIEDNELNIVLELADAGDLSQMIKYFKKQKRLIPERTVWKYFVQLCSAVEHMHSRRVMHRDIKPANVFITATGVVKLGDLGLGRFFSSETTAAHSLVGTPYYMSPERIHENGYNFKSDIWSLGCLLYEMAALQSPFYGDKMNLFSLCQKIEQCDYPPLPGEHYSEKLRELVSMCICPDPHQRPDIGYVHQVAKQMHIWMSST
Chain of Receptor-interacting serine/threonine-protein kinase 2 (O43353 whole entry): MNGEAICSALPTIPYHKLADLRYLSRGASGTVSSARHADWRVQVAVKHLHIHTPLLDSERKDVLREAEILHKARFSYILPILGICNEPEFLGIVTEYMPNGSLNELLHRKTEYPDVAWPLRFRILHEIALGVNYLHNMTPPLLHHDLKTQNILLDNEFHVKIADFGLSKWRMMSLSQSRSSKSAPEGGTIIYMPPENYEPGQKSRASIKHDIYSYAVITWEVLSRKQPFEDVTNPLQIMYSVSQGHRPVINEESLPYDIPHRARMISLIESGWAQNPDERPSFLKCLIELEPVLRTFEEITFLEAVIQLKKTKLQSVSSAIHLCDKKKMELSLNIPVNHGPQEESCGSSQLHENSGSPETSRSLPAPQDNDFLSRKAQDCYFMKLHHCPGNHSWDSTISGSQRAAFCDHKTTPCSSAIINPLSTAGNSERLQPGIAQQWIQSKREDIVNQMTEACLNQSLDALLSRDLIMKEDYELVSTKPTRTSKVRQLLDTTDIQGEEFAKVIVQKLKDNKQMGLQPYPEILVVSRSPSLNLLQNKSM
Chain of Tyrosine-protein kinase Fyn (Homo sapiens) (P06241 2-537 limits assumed): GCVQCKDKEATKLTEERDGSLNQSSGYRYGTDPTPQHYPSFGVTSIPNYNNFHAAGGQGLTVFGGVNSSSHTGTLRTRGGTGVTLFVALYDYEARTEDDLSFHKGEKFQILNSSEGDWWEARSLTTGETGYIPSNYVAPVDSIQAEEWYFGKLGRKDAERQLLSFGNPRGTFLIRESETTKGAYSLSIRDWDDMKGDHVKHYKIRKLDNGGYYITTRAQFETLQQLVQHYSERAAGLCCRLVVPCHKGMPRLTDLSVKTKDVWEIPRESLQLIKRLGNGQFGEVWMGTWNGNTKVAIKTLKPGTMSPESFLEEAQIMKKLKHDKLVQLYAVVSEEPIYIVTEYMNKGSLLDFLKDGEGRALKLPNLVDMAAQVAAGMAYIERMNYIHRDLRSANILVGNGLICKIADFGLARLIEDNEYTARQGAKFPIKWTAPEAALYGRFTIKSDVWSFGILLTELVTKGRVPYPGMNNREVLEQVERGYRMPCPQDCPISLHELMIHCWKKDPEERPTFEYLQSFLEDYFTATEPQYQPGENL
Chain of Mitogen-activated protein kinase 14 (Q16539 whole entry): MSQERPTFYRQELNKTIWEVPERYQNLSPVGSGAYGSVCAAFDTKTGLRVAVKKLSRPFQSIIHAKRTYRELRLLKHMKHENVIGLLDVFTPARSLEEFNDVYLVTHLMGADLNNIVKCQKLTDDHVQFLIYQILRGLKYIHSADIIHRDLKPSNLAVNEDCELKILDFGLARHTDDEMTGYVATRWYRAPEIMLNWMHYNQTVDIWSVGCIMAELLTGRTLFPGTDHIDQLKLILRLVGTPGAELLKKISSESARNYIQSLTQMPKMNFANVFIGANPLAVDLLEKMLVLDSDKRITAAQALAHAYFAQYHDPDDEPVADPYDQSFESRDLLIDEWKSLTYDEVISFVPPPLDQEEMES

% of control [1]: 101%
SMILES: CC(=O)Nc1cccc(-n2c(=O)n(C3CC3)c(=O)c3c(Nc4ccc(I)cc4F)n(C)c(=O)c(C)c32)c1

IC50 [4]: > 10 µM
SMILES: CCc1cccc(CC)c1NC(=O)c1nn(C)c2c1CCc1cnc(Nc3ccc(C(=O)NC4CCN(C)CC4)cc3OC(F)(F)F)nc1-2

The next lines start with the molecule.

SMILES: CC[C@@H]1[C@H](F)C(=O)N[C@@H]1COc1nccc2cc(C(N)=O)c(OC)cc12 [ZIMLOVISERTIB]
% of inhibition [2]: 7.1%
% of inhibition [3]: 16.8%

SMILES: CN1Cc2nccc(-c3cn(C)nc3-c3ccc(F)cc3)c2C1=O
% of inhibition [5]: 5%

SMILES: Cc1ccc(-c2ccc3c(ccc4sc5c(c43)NC[C@@H](C)NC5=O)n2)cn1
% of inhibition [6]: 19%

SMILES: CC(C)(O)[C@H](F)CN1Cc2cc(NC(=O)c3cnn4cccnc34)c(N3CCOCC3)cc2C1=O
dTM [7]: 1.6 K
